Measurements taken from PubChem BioAssay AID248 (DTP/NCI, 2004).
Several values for one entry are separate records, joined by “and”; a condition that tells them apart may be missing. Equal values may be shown once. Toxic doses and inconclusive results are not listed. Cut-off read from the data, not from the text of the source: active = T/C of 150% or more; inactive = T/C below 125%.

System: L1210 leukemia ip in BDF1 mice, survival T/C
Experiment: NCI In Vivo Anticancer Drug Screen. Data for tumor model L1210 Leukemia (intraperitoneal) in B6D2F1 (BDF1) mice
Conditions: endpoint: mean survival time, higher = longer survival
Procedure, shortened: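 Transplanted-tumor mice were given test agent; controls received vehicle only. Survival readings from the two groups were divided (treated over control).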

[1] = dose: 100.0 mg/kg/injection, schedule: Q01DX009 (ip), vehicle: saline
[2] = dose: 200.0 mg/kg/injection, schedule: Q01DX009 (ip), vehicle: saline
[3] = dose: 12.5 mg/kg/injection, schedule: Q04DX003 (ip), vehicle: saline
[4] = dose: 25.0 mg/kg/injection, schedule: Q04DX003 (ip), vehicle: saline
[5] = dose: 100.0 mg/kg/injection, schedule: Q04DX003 (ip), vehicle: Klucel (hydroxypropylcellulose) (HPC)
[6] = dose: 200.0 mg/kg/injection, schedule: Q04DX003 (ip), vehicle: Klucel (hydroxypropylcellulose) (HPC)
[7] = dose: 400.0 mg/kg/injection, schedule: Q04DX003 (ip), vehicle: Klucel (hydroxypropylcellulose) (HPC)

Measured: T/C

CN(C)N=Nc1cn(C2OC(CO)C(O)C2O)c(=O)[nH]c1=O (stereo not given)
inactive: [1] 111 % of control | [2] 120 % of control

O=C(O)c1ccccc1Cc1ccc2c(c1)Cc1ccccc1-2
inactive: dose: 100.0 mg/kg/injection, schedule: Q01DX001 (ip), vehicle: carboxymethylcellulose (CMC) 92 % of control | dose: 200.0 mg/kg/injection, schedule: Q01DX001 (ip), vehicle: carboxymethylcellulose (CMC) 94 % of control | dose: 400.0 mg/kg/injection, schedule: Q01DX001 (ip), vehicle: carboxymethylcellulose (CMC) 113 % of control

Nc1ccc2nc3c4ccccc4c(O)n3nc2c1
inactive: dose: 100.0 mg/kg/injection, schedule: Q04DX002 (ip), vehicle: saline with Tween-80 106 % of control | dose: 200.0 mg/kg/injection, schedule: Q04DX002 (ip), vehicle: saline with Tween-80 102 % of control | dose: 400.0 mg/kg/injection, schedule: Q04DX002 (ip), vehicle: saline with Tween-80 102 % of control

CCOC(=O)c1cnc2c(ccc3ncccc32)c1NCCCN(CC)CC
inactive: dose: 50.0 mg/kg/injection, schedule: Q01DX009 (ip), vehicle: Klucel (hydroxypropylcellulose) (HPC) 112 % of control

C/C=C/C(=O)OCCC[N+](C)(C)C
inactive: dose: 0.78 mg/kg/injection, schedule: Q01DX009 (ip), vehicle: saline 95 % of control | dose: 1.56 mg/kg/injection, schedule: Q01DX009 (ip), vehicle: saline 97 % of control | dose: 3.12 mg/kg/injection, schedule: Q01DX009 (ip), vehicle: saline 100 % of control | dose: 6.25 mg/kg/injection, schedule: Q04DX003 (ip), vehicle: saline 111 % of control | [3] 88 % of control | [4] 103 % of control

O=[N+]([O-])c1ccc(Cl)c2ncccc12
inactive: [5] 102 % of control | [6] 98 % of control | [7] 102 % of control

NC(=O)C/C=C/CC(N)=O
inactive: [5] 102 % of control | [6] 102 % of control | [7] 102 % of control

CCC[CH2][Pb]([CH2]CCC)([CH2]CCC)[n]1ccnc1
inactive: dose: 1.5 mg/kg/injection, schedule: Q01DX009 (ip), vehicle: Klucel (hydroxypropylcellulose) (HPC) 95 % of control | dose: 3.0 mg/kg/injection, schedule: Q01DX009 (ip), vehicle: Klucel (hydroxypropylcellulose) (HPC) 96 % of control | dose: 6.0 mg/kg/injection, schedule: Q01DX009 (ip), vehicle: Klucel (hydroxypropylcellulose) (HPC) 90 % of control | dose: 12.5 mg/kg/injection, schedule: Q04DX003 (ip), vehicle: Klucel (hydroxypropylcellulose) (HPC) 97 % of control | dose: 25.0 mg/kg/injection, schedule: Q04DX003 (ip), vehicle: Klucel (hydroxypropylcellulose) (HPC) 97 % of control | dose: 50.0 mg/kg/injection, schedule: Q01DX001 (ip), vehicle: saline 98 % of control | dose: 50.0 mg/kg/injection, schedule: Q04DX003 (ip), vehicle: Klucel (hydroxypropylcellulose) (HPC) 86 % of control | dose: 100.0 mg/kg/injection, schedule: Q01DX001 (ip), vehicle: saline 95 % of control | dose: 200.0 mg/kg/injection, schedule: Q01DX001 (ip), vehicle: saline 93 % of control

CC1(CCCOc2ccc(NC(=O)CBr)cc2)N=C(N)N=C(N)N1c1ccccc1 (stereo not given)
inactive: dose: 5.0 mg/kg/injection, schedule: Q01DX001 (ip), vehicle: saline 97 % of control | dose: 10.0 mg/kg/injection, schedule: Q01DX001 (ip), vehicle: saline 92 % of control | dose: 20.0 mg/kg/injection, schedule: Q01DX001 (ip), vehicle: saline 91 % of control | dose: 40.0 mg/kg/injection, schedule: Q01DX001 (ip), vehicle: saline 91 % of control | dose: 80.0 mg/kg/injection, schedule: Q01DX001 (ip), vehicle: saline 87 % of control

CC(C)C(O)(C(=O)NN)C(=O)NN
inactive: dose: 100.0 mg/kg/injection, schedule: Q01DX009 (ip), vehicle: Klucel (hydroxypropylcellulose) (HPC) 100 % of control | dose: 100.0 mg/kg/injection, schedule: Q04DX003 (ip), vehicle: saline 105 % of control | dose: 200.0 mg/kg/injection, schedule: Q01DX009 (ip), vehicle: Klucel (hydroxypropylcellulose) (HPC) 90 % of control | dose: 200.0 mg/kg/injection, schedule: Q04DX003 (ip), vehicle: saline 96 % of control | dose: 400.0 mg/kg/injection, schedule: Q01DX009 (ip), vehicle: Klucel (hydroxypropylcellulose) (HPC) 93 % of control | dose: 400.0 mg/kg/injection, schedule: Q04DX003 (ip), vehicle: saline 103 % of control

OCC#CC(O)c1ccccc1 (stereo not given)
inactive: dose: 12.5 mg/kg/injection, schedule: Q01DX001 (ip), vehicle: acetone 94 % of control | dose: 12.5 mg/kg/injection, schedule: Q01DX009 (ip), vehicle: saline 94 % of control | dose: 12.5 mg/kg/injection, schedule: Q04DX003 (ip), vehicle: acetone 97 % of control | [3] 96 % of control | dose: 25.0 mg/kg/injection, schedule: Q01DX001 (ip), vehicle: acetone 97 % of control | dose: 25.0 mg/kg/injection, schedule: Q01DX009 (ip), vehicle: saline 92 % of control | [4] 96 % of control | dose: 50.0 mg/kg/injection, schedule: Q01DX001 (ip), vehicle: acetone 92 % of control | dose: 50.0 mg/kg/injection, schedule: Q01DX009 (ip), vehicle: saline 95 % of control | dose: 50.0 mg/kg/injection, schedule: Q04DX003 (ip), vehicle: acetone 95 % of control | dose: 50.0 mg/kg/injection, schedule: Q04DX003 (ip), vehicle: saline 95 % of control | dose: 75.0 mg/kg/injection, schedule: Q01DX009 (ip), vehicle: saline 98 % of control | dose: 115.0 mg/kg/injection, schedule: Q01DX009 (ip), vehicle: saline 107 % of control

CC(=O)Nc1cccc(S(=O)(=O)F)c1
inactive: dose: 50.0 mg/kg/injection, schedule: Q01DX009 (ip), vehicle: saline with Tween-80 100 % of control | dose: 100.0 mg/kg/injection, schedule: Q01DX009 (ip), vehicle: saline with Tween-80 105 % of control | dose: 200.0 mg/kg/injection, schedule: Q01DX009 (ip), vehicle: saline with Tween-80 88 % of control

C1CN2CCOC2O1
inactive: [1] 101 % of control | [2] 108 % of control | dose: 400.0 mg/kg/injection, schedule: Q01DX009 (ip), vehicle: saline 100 % of control

O=c1[nH]cc(C(F)(F)F)c(=O)[nH]1
inactive: dose: 4.0 mg/kg/injection, schedule: Q01DX Z (oral), vehicle: methylcellulose (MC) 106 % of control | dose: 8.0 mg/kg/injection, schedule: Q01DX Z (oral), vehicle: methylcellulose (MC) 102 % of control | dose: 12.0 mg/kg/injection, schedule: Q01DX Z (oral), vehicle: methylcellulose (MC) 103 % of control and 91 % of control | dose: 16.0 mg/kg/injection, schedule: Q01DX Z (oral), vehicle: methylcellulose (MC) 90 % of control | dose: 50.0 mg/kg/injection, schedule: Q01DX Z (ip), vehicle: saline 103 % of control | dose: 100.0 mg/kg/injection, schedule: Q01DX Z (ip), vehicle: saline 107 % of control | dose: 200.0 mg/kg/injection, schedule: Q01DX Z (ip), vehicle: saline 116 % of control and 123 % of control | dose: 300.0 mg/kg/injection, schedule: Q01DX Z (ip), vehicle: saline 124 % of control | dose: 400.0 mg/kg/injection, schedule: Q01DX Z (ip), vehicle: saline 98 % of control | dose: 500.0 mg/kg/injection, schedule: Q01DX Z (ip), vehicle: saline 117 % of control | dose: 500.0 mg/kg/injection, schedule: Q01DX Z (oral), vehicle: methylcellulose (MC) 111 % of control | dose: 1000.0 mg/kg/injection, schedule: Q01DX Z (oral), vehicle: methylcellulose (MC) 93 % of control | dose: 1500.0 mg/kg/injection, schedule: Q01DX Z (oral), vehicle: methylcellulose (MC) 94 % of control | dose: 2000.0 mg/kg/injection, schedule: Q01DX Z (oral), vehicle: methylcellulose (MC) 88 % of control

O=C(O)c1nc2ccccc2[nH]c1=O
inactive: [5] 88 % of control | [6] 92 % of control | [7] 87 % of control

Cc1ccc(C(=O)c2ccccc2)cc1
inactive: [5] 97 % of control | [6] 104 % of control | [7] 92 % of control

CCCC(CCC)NCCOC(=O)c1ccc(N)cc1
inactive: dose: 75.0 mg/kg/injection, schedule: Q01DX001 (ip), vehicle: other 101 % of control

CC1(C)OC2C(COC(=O)Oc3ccccc3)OC(n3cnc4c(=O)[nH]c(N)nc43)C2O1 (stereo not given)
inactive: dose: 100.0 mg/kg/injection, schedule: Q01DX005 (ip), vehicle: saline 106 % of control | dose: 200.0 mg/kg/injection, schedule: Q01DX005 (ip), vehicle: saline 97 % of control

O=C(OCCl)c1ccc(Cl)cc1Cl
inactive: dose: 100.0 mg/kg/injection, schedule: Q04DX003 (ip), vehicle: saline with Tween-80 87 % of control | dose: 400.0 mg/kg/injection, schedule: Q04DX003 (ip), vehicle: saline with Tween-80 88 % of control
